Assay results as given in publication PMC7377239, “Cardiovascular Effects of Polychlorinated Biphenyls and Their Major Metabolites” (Environmental Health Perspectives, 2020).
Like-named read-outs stand apart in the source and are kept apart here.

Tests used:
[1] = system: iCell endothelial cells (human iPSC-derived ECs); experiment: Tube formation (tubulogenesis) assay in iCell endothelial cells, 18 h; format: cell-based
How it was run: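 Tube formation was measured by calcein AM imaging after overnight compound exposure (37°C, 0.5% DMSO vehicle) of human iPSC-derived ECs, 7,500/well, on reduced-growth-factor Geltrex in starvation medium. Vehicle-normalized data fitted to four-parameter logistic; POD set at one vehicle SD; without response, 100 μM taken as NOAEL.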

HUVECs = experiment: High-content imaging cytotoxicity in HUVECs, 24 h; format: cell-based, human; conditions: for minimal effective concentration / viability at 0.01 µM / activity at 0.01 µM / activity at 0.1 µM / viability at 1 µM / activity at 1 µM / viability at 10 µM / activity at 10 µM / viability at 100 µM / activity at 100 µM: Homo sapiens, HUVEC, 24 h; for viability at 0.01 µM / activity at 0.01 µM: concentration 0.01 µM; for viability at 1 µM / activity at 1 µM: concentration 1.00 µM; for viability at 10 µM / activity at 10 µM: concentration 10.00 µM; for viability at 100 µM / activity at 100 µM: concentration 100.00 µM
How it was run: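 Confluent HUVEC monolayers, passages 1–5, received test chemicals for 24 h. Cytotoxicity was scored from triple-stain high-content images, with PODs defined by a one-SD deviation from 0.5% DMSO vehicle controls.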

[2] = Homo sapiens, Endothelial cell, endothelial cells (endo), tube formation mtl, 18 hr, read-out: POD endo.mtl.18hr
[3] = iPSC-EC, 0.10 µM, 0.00 µM = 100.00
[4] = iPSC-EC, 10.00 µM, 0.00 µM = 100.00
[5] = iPSC-EC, 100.00 µM, 0.00 µM = 100.00
[6] = mitoint, 24 hr, read-out: POD huvec.mitoint.24hr
[7] = nma, 24 hr, read-out: POD huvec.nma.24hr
[8] = HUVECs, 24 hr, 0.00 µM = 100.00, read-out: huvec.cyto.24hr
[9] = HUVECs, 24 hr, 0.00 µM = 100.00, read-out: huvec.mito.24hr
[10] = HUVECs, 24 hr, 0.00 µM = 100.00, read-out: huvec.mitoint.24hr
[11] = HUVECs, 24 hr, 0.00 µM = 100.00, read-out: huvec.nma.24hr
[12] = HUVECs, 24 hrs, 0.00 µM = 100.00, read-out: huvec.tc.24hrs

**Q.** Which results are given for `Clc1ccc(Cl)c(-c2c(Cl)ccc(Cl)c2Cl)c1Cl` [(+)-PCB 136, 2,2′,3,3′,6,6′-hexachlorobiphenyl]?
**A.** minimal effective concentration [1, 2]: 63.5 µM; activity at 0.01 µM ([1]; Homo sapiens, Endothelial cell, iPSC-EC, 0.01 µM, 0.00 µM = 100.00, read-out: endo.mtl.18hr): 115%; activity at 0.01 µM ([1]; Homo sapiens, Endothelial cell, iPSC-EC, 0.01 µM, 0.00 µM = 100.00, read-out: endo.tta.18hr): 133%; activity at 0.01 µM ([1]; Homo sapiens, Endothelial cell, iPSC-EC, 0.01 µM, 0.00 µM = 100.00, read-out: endo.ttl.18hr): 135%; activity at 0.1 µM ([1]; Homo sapiens, Endothelial cell, iPSC-EC, 0.10 µM, 0.00 µM = 100.00, read-out: endo.mtl.18hr): 113%; activity at 0.1 µM ([1]; Homo sapiens, Endothelial cell, iPSC-EC, 0.10 µM, 0.00 µM = 100.00, read-out: endo.ttl.18hr): 132%; activity at 1 µM ([1]; Homo sapiens, Endothelial cell, iPSC-EC, 1.00 µM, 0.00 µM = 100.00, read-out: endo.mtl.18hr): 111%; activity at 1 µM ([1]; Homo sapiens, Endothelial cell, iPSC-EC, 1.00 µM, 0.00 µM = 100.00, read-out: endo.tta.18hr): 134%; activity at 1 µM ([1]; Homo sapiens, Endothelial cell, iPSC-EC, 1.00 µM, 0.00 µM = 100.00, read-out: endo.ttl.18hr): 139%; activity at 10 µM ([1]; Homo sapiens, Endothelial cell, iPSC-EC, 10.00 µM, 0.00 µM = 100.00, read-out: endo.mtl.18hr): 107%; minimal effective concentration ([1]; Homo sapiens, Endothelial cell, iPSC-EC, 100.00 = highest concentration tested, read-out: endo.mtl.18hr POD): 63.5 µM; endo.tlps.18hr ([1]; iPSC-EC, 0.01 µM, 0.00 µM = 100.00): 101.49; endo.tlps.18hr [1, 3]: 128.16; endo.tta.18hr [1, 3]: 137.60; endo.tlps.18hr ([1]; iPSC-EC, 1.00 µM, 0.00 µM = 100.00): 103.43; endo.tlps.18hr [1, 4]: 157.84; endo.tta.18hr [1, 4]: 197.38; endo.ttl.18hr [1, 4]: 177.54; endo.mtl.18hr [1, 5]: 68.39; endo.tlps.18hr [1, 5]: 43.04; endo.tta.18hr [1, 5]: 78.91; endo.ttl.18hr [1, 5]: 80.17; huvec.mito.24hr (HUVECs; HUVECs, 24 hr, concentration 0.10 µM, 0.00 µM = 100.00): 96.64; minimal effective concentration (HUVECs; [6]): 0.64 µM; minimal effective concentration (HUVECs; [7]): 1.82 µM; viability at 0.01 µM (HUVECs; [8]): 89.2%; activity at 0.01 µM (HUVECs; [9]): 87.1%; activity at 0.01 µM (HUVECs; [10]): 81.7%; activity at 0.01 µM (HUVECs; [11]): 95.8%; activity at 0.1 µM (HUVECs; HUVECs, 24 hr, concentration 0.10 µM, 0.00 µM = 100.00, read-out: huvec.mitoint.24hr): 80.9%; activity at 0.1 µM (HUVECs; HUVECs, 24 hr, concentration 0.10 µM, 0.00 µM = 100.00, read-out: huvec.nma.24hr): 93.4%; viability at 1 µM (HUVECs; [8]): 81.4%; activity at 1 µM (HUVECs; [9]): 80.3%; activity at 1 µM (HUVECs; [10]): 78.8%; activity at 1 µM (HUVECs; [11]): 99.5%; viability at 10 µM (HUVECs; [8]): 65.2%; activity at 10 µM (HUVECs; [9]): 30.4%; activity at 10 µM (HUVECs; [10]): 9.57%; activity at 10 µM (HUVECs; [11]): 50.8%; viability at 100 µM (HUVECs; [8]): 40%; activity at 100 µM (HUVECs; [9]): 25.7%; activity at 100 µM (HUVECs; [10]): 14.8%; activity at 100 µM (HUVECs; [11]): 75.7%; minimal effective concentration (HUVECs; HUVECs, 24 hr, MAX 100.00, read-out: huvec.mitoint.24hr POD): 0.64 µM; minimal effective concentration (HUVECs; HUVECs, 24 hr, MAX 100.00, read-out: huvec.nma.24hr POD): 1.82 µM; viability at 0.01 µM (HUVECs; [12]): 89.2%; viability at 1 µM (HUVECs; [12]): 81.4%; viability at 10 µM (HUVECs; [12]): 65.3%; viability at 100 µM (HUVECs; [12]): 40.2%

**Q.** What does the source list for `COc1cc(Cl)c(-c2cc(Cl)ccc2Cl)cc1Cl` [4-OMe-PCB 52, 4-methoxy-2,2′,5,5′-tetrachlorobiphenyl]?
**A.** minimal effective concentration [1, 2]: 52 µM; minimal effective concentration ([1]; Homo sapiens, Endothelial cell, endothelial cells (endo), tube formation tlps, 18 hr, read-out: POD endo.tlps.18hr): 56 µM; minimal effective concentration ([1]; Homo sapiens, Endothelial cell, endothelial cells (endo), tube formation tta, 18 hr, read-out: POD endo.tta.18hr): 51.6 µM; minimal effective concentration ([1]; Homo sapiens, Endothelial cell, endothelial cells (endo), tube formation ttl, 18 hr, read-out: POD endo.ttl.18hr): 54.7 µM; minimal effective concentration (HUVECs; cyto, 24 hr, read-out: POD huvec.cyto.24hr): 0.78 µM; minimal effective concentration (HUVECs; mito, 24 hr, read-out: POD huvec.mito.24hr): 0.55 µM; minimal effective concentration (HUVECs; [6]): 2.69 µM; minimal effective concentration (HUVECs; [7]): 2.36 µM; minimal effective concentration (HUVECs; tc, 24 hr, read-out: POD huvec.tc.24hr): 0.78 µM
